Reference: the NIST ThermoML archive (doi:10.1021/je300827f)

Experiment: xn = mol fraction of the nth substance listed
Settings: 101 kPa, Liquid; for viscosity: Capillary tube (Ostwald / Ubbelohde) method; for mass density: Vibrating tube method

CCCCCC(C)O (configuration not stated) [2-heptanol] + OCCOCCO
Settings | mass density, 298.15 K [kg/m3] | mass density, 303.15 K [kg/m3] | mass density, 308.15 K [kg/m3] | mass density, 313.15 K [kg/m3] | viscosity, 298.15 K [mPa·s] | viscosity, 303.15 K [mPa·s] | viscosity, 308.15 K [mPa·s] | viscosity, 313.15 K [mPa·s]
x2 = 0 | 813.2 | 809.3 | 805 | 801.1 | 5.02 | 4.15 | 3.48 | 2.85
x2 = 0.0807 | 829.4 | 825.2 | 820.9 | 817 | 5.22 | 4.45 | 3.98 | 3.04
x2 = 0.1596 | 846.1 | 841.8 | 837.5 | 833.5 | 5.27 | 4.66 | 4.23 | 3.21
x2 = 0.2397 | 864.1 | 859.8 | 855.3 | 851.2 | 5.38 | 4.89 | 4.39 | 3.42
x2 = 0.3501 | 890.9 | 886.5 | 881.9 | 877.7 | 5.94 | 5.44 | 4.7 | 3.87
x2 = 0.4398 | 914.4 | 910.1 | 905.3 | 901.2 | 6.95 | 6.21 | 5.2 | 4.45
x2 = 0.5602 | 948.9 | 944.5 | 939.8 | 935.5 | 9.32 | 7.87 | 6.43 | 5.64
x2 = 0.6501 | 977.1 | 972.8 | 968.2 | 963.9 | 11.89 | 9.69 | 7.84 | 6.89
x2 = 0.7402 | 1007.7 | 1003.6 | 999.1 | 994.9 | 15.13 | 12.04 | 9.71 | 8.46
x2 = 0.8501 | 1048.8 | 1044.9 | 1040.6 | 1036.6 | 19.86 | 15.65 | 12.54 | 10.82
x2 = 0.9397 | 1085.7 | 1082.1 | 1078.4 | 1074.6 | 24.15 | 19.2 | 15.27 | 13.1

CCCCC(C)O (configuration not stated) [2-hexanol] + OCCOCCO
Settings | mass density, 298.15 K [kg/m3] | mass density, 303.15 K [kg/m3] | mass density, 308.15 K [kg/m3] | mass density, 313.15 K [kg/m3] | viscosity, 298.15 K [mPa·s] | viscosity, 303.15 K [mPa·s] | viscosity, 308.15 K [mPa·s] | viscosity, 313.15 K [mPa·s]
x2 = 0 | 810.1 | 806.1 | 802.1 | 798 | 4.1 | 3.41 | 2.82 | 2.22
x2 = 0.0809 | 828.8 | 824.7 | 820.3 | 816.1 | 4.24 | 3.93 | 3.13 | 2.26
x2 = 0.1597 | 847.7 | 843.5 | 839.1 | 834.7 | 4.39 | 4.19 | 3.38 | 2.47
x2 = 0.2398 | 867.8 | 863.5 | 858.9 | 854.4 | 4.71 | 4.43 | 3.66 | 2.85
x2 = 0.3501 | 896.9 | 892.5 | 887.8 | 883.1 | 5.69 | 5.03 | 4.24 | 3.63
x2 = 0.4398 | 921.9 | 917.6 | 912.7 | 908.2 | 7.07 | 5.96 | 4.99 | 4.5
x2 = 0.5602 | 957.6 | 953.2 | 948.4 | 943.7 | 9.89 | 8 | 6.49 | 5.99
x2 = 0.6501 | 985.9 | 981.6 | 976.9 | 972.3 | 12.69 | 10.16 | 8.04 | 7.37
x2 = 0.7403 | 1015.9 | 1011.7 | 1007.2 | 1002.7 | 16.04 | 12.83 | 9.96 | 8.96
x2 = 0.8502 | 1054.8 | 1050.9 | 1046.6 | 1042.5 | 20.63 | 16.56 | 12.76 | 11.2
x2 = 0.9398 | 1088.6 | 1084.9 | 1081.1 | 1077.5 | 24.55 | 19.77 | 15.38 | 13.28

CCC(C)O (configuration not stated) [butan-2-ol] + OCCOCCO
x2 = 0
Settings | mass density [kg/m3] | viscosity [mPa·s]
298.15 K | 802.7 | 3.1
303.15 K | 798.3 | 2.6
308.15 K | 793.6 | 2.15
313.15 K | 789.1 | 1.73

OCCOCCO [diethylene glycol] + CC(C)O
Settings | mass density, 298.15 K [kg/m3] | mass density, 303.15 K [kg/m3] | mass density, 308.15 K [kg/m3] | mass density, 313.15 K [kg/m3] | viscosity, 298.15 K [mPa·s] | viscosity, 303.15 K [mPa·s] | viscosity, 308.15 K [mPa·s] | viscosity, 313.15 K [mPa·s]
x1 = 0.0808 | 814.9 | 810.2 | 805.2 | 800.5 | 2.71 | 2.54 | 2.22 | 1.9
x1 = 0.1599 | 846.9 | 841.8 | 836.5 | 831.7 | 3.59 | 3.38 | 2.89 | 2.52
x1 = 0.2398 | 877.8 | 872.4 | 867 | 862 | 4.73 | 4.35 | 3.63 | 3.25
x1 = 0.3501 | 918.3 | 912.7 | 907.3 | 902.2 | 6.67 | 5.93 | 4.83 | 4.41
x1 = 0.4399 | 949.6 | 943.9 | 938.5 | 933.4 | 8.59 | 7.44 | 6 | 5.49
x1 = 0.5596 | 988.8 | 983.3 | 978.1 | 973.1 | 11.59 | 9.8 | 7.84 | 7.09
x1 = 0.6499 | 1016.8 | 1011.5 | 1006.4 | 1001.4 | 14.2 | 11.84 | 9.47 | 8.44
x1 = 0.7396 | 1043.2 | 1038.2 | 1033.4 | 1028.8 | 17.08 | 14.1 | 11.27 | 9.89
x1 = 0.8501 | 1073.9 | 1069.5 | 1065.2 | 1061.1 | 21.04 | 17.19 | 13.7 | 11.84
x1 = 0.9402 | 1097.4 | 1093.8 | 1089.8 | 1086.2 | 24.61 | 19.94 | 15.82 | 13.58
x1 = 1 | 1112.4 | 1109.1 | 1105.6 | 1102.3 | 27.15 | 21.87 | 17.26 | 14.81
